Source: patent publication US6071905A, “Biologically active substance on the basis of tetracyclic nitrogen heterocycles of pyrimidine row” (Natural Drug Sciences, LLC, priority 1998, dated 2000)

Tested on: M. tuberculosis 16R
Experiment: action on pathogenic mycobacteria from patients, Lowenstein-Jensen medium, M. tuberculosis 16R
Type: cell-based
Conditions: title: concentration of compound 10.0 g/l; 30 days; resistant to control compounds

Row | SMILES | antimicrobial action, M. tuberculosis 16R
1 | CC[C@@H](CO)NCCN[C@@H](CC)CO [Ethambutol, reference compound] | growth
2 | NNC(=O)c1ccncc1 [Isoniazid, hydrazide of izonicotinic acid, reference compound] | growth
3 | CO[C@H]1/C=C/O[C@@]2(C)Oc3c(C)c(O)c4c(O)c(cc(O)c4c3C2=O)NC(=O)/C(C)=C\C=C\[C@H](C)[C@H](O)[C@@H](C)[C@@H](O)[C@@H](C)[C@H](OC(C)=O)[C@@H]1C [Rifamycin, reference compound] | growth
4 | [H]/N=C(/N)N[C@H]1[C@H](O)[C@@H](O)[C@H](O[C@@H]2O[C@@H](C)[C@](O)(C=O)[C@H]2O[C@@H]2O[C@@H](CO)[C@H](O)[C@@H](O)[C@@H]2NC)[C@@H](N/C(N)=N\[H])[C@@H]1O [Streptomycin, reference compound] | growth
